The text below walks through data of patent US20130090371A1, “METHODS AND COMPOSITIONS FOR INHIBITION OF BETA2-ADRENERGIC RECEPTOR DEGRADATION” (PRESIDENT AND FELLOWS OF HARVARD COLLEGE, priority 2010, published 2013).

d = 2'-deoxy (DNA); r = 2'-OH (RNA)

Series [1] concerns β2AR. The series can be described thus: Immunoblot of exogenously expressed β2AR in 293β2AR cells. Type of series: cell-based, human. Particulars: at a higher concentration; three days. From the text:
Three repeats were done with similar results.
Background: A western blot detects proteins with antibodies after separation by electrophoresis.

Series [2] has as its system β2AR. The series can be described thus: Immunoblot of β2AR protein in human airway smooth muscle (HASM) cells.
Description: Error bars represented the standard deviations; Student t-test * p<0.05, n=2. […] Indirect Immunofluorescence staining of β2AR and phase contract images are shown.
Three days after the inhibitor treatment cell lysates were collected and analyzed by immunoblotting. Three repeats were done with similar results.
Immunoblot analysis. 48 h post DNA transfection, cells were wash with PBS and lysed with NP-40 lysing buffer (50 mM Tris-HCl pH7.5, 150 mM NaCl, 0.5% Nonidet P-40) containing protease inhibitor cocktail (Roche). Protein samples were separated on NuPAGE 10% Bis-Tris gels (Invitrogen) and transferred to nitrocellulose membranes (Bio-Rad). Immunoblot signals were developed using SuperSignal West Pico Chemiluminescent Substrate (Pierce, Rockford, Ill., USA) and quantified by a Luminescence Imager or exposed to X-ray films.
For series [3], the system named is latrophilin 2. The series can be described thus: Quantitative real-time PCR of latrophilin 2 expression. Type of series: cell-based, human. Particulars: vs NT siRNA. The text has this: FIG. 11A-11C show inhibition of an EST RNA (AA496068) increases latrophilin 2 expression and decreases β2-AR degradation. FIG. 11A show the genomic locus that is targeted by AA496068 EST shRNA (SEQ ID NO: 2). The shRNA corresponds to sequences in an EST AA496068, which is about 150 kb upstream of the latrophilin 2 gene, and binding of this shRNA […] (SEQ ID NO: 2) activates latrophilin 2 and decreases β2-AR degradation. Thus SEQ ID NO: 2 serves as an activator or agonist of lactrophinin 2. The whole region covering the EST and latrophilin 2 is also annotated as KIAA0786. […] Cells were then labeled with anti-FLAG-FITC and analyzed by flow cytometry. FIG. 11B are histograms showing the distribution of cells treated with vehicle (upper panel) or ISO (lower panel) are shown above. […] Total RNA was isolated from cells transfected with NT or AA496068 EST siRNAs. Latrophilin 2 and AA496068 EST expression was determined by reverse transcription using random hexamers followed by quantitative real-time PCR.

Series [4] concerns β2AR. As to the kind of experiment: qRT-PCR of β2AR mRNA in HASM cells. The format is cell-based, human. Particulars: AAEST siRNA.
Series [5] relates to surface β2-AR. The series can be described thus: Surface β2-AR by FACS (α-Flag FITC) after AAEST siRNA. Type of series: cell-based, human. Particulars: text: HASM cells; legend FIG. 16A: HEK293 cells. In general terms: In flow cytometry, cells or beads pass a laser one at a time.
The test system of series [6] is β2AR. The series can be described thus: Baseline β2AR expression in cells after AAEST knockdown. The format is cell-based.
The target in series [7] is T1, β2ARt (Homo sapiens, UniProt P07550).
T1 construct: a distally truncated form (after residue 385) of β2AR (β2ARt); expressed in transfected cells; host or cells: HEK293 (293.β2AR*)
The series can be described thus: Immunoblot of agonist-induced β2AR degradation in 293β2AR* / β2ARt cells. The format is cell-based. As for the experimental part:
(§1) β2AR ubiquitination and degradation assays. Cells expressing […] or β2ARt were subjected to 10 μM ISO (Sigma) stimulation, lysed in 0.5% NP-40 lysis buffer and immunoblotted with anti-FLAG-HRP (Sigma). For β2AR ubiquitination, β2ARt or wt-β2AR expressing cells were first incubated with 10 μM alprenolol antagonist (Sigma) for 15 min (to reduce constitutive background ubiquitination), stimulated with 10 μM ISO and lysed in buffer supplemented with 10 mM N-ethylmaleimide (NEM; Sigma) to inhibit deubiquitinase activity. Anti-FLAG EZview beads (Sigma) used for the IP were subjected to three 10 min washes with lysis buffer and resuspended in 50 μl 2βLDS sample buffer (Invitrogen) containing 10% β-mercaptoethanol (Sigma) and analyzed by immunoblotting.

The target of series [8] is T2, wild-type β2AR (Homo sapiens, UniProt P07550).
T2 construct: expressed in transfected cells; host or cells: HEK293 (293.β2AR^WT)
As to the kind of experiment: Immunoblot of agonist-induced degradation of wild-type β2AR. As to conditions: siRNA-transfected cells. Type of series: cell-based.
Description: β2AR ubiquitination and degradation assays. Cells expressing PAR or β2ARt were subjected to 10 μM ISO (Sigma) stimulation, lysed in 0.5% NP-40 lysis buffer and immunoblotted with anti-FLAG-HRP (Sigma). For β2AR ubiquitination, β2ARt or wt-β2AR expressing cells were first incubated with 10 μM alprenolol antagonist (Sigma) for 15 min (to reduce constitutive background ubiquitination), stimulated with 10 μM ISO and lysed in buffer supplemented with 10 mM N-ethylmaleimide (NEM; Sigma) to inhibit deubiquitinase activity. Anti-FLAG EZview beads (Sigma) used for the IP were subjected to three 10 min washes with lysis buffer and resuspended in 50 μl 2βLDS sample buffer (Invitrogen) containing 10% β-mercaptoethanol (Sigma) and analyzed by immunoblotting.

The target of series [9] is T1, β2ARt. The series can be described thus: β2AR ubiquitination assay, β2ARt cells. Type of series: cell-based. As to conditions: ISO stimulation. As for the experimental part: as §1
The target in series [10] is T2, wild-type β2AR. As to the kind of experiment: β2AR ubiquitination assay, wild-type β2AR cells. The format is cell-based. As to conditions: ISO stimulation. As for the experimental part: as §1
Series [11] concerns ARRDC3. The series can be described thus: ARRDC3 protein knockdown by siRNA. Type of series: cell-based, human.
Series [12] has as its target T3, NEDD4/β2AR (Homo sapiens, UniProt P07550).
T3 construct: a distally truncated form (after residue 385) of β2AR (β2ARt); expressed in transfected cells; host or cells: HEK293 cells stably expressing FLAG-β2ARt
The series can be described thus: IP assay of NEDD4/β2AR association in β2ARt-expressing cells. The format is cell-based. Particulars: presence or absence of ISO stimulation. As for the experimental part: FIGS. 10A-10B show ARRDC3 is an essential adaptor for β2AR ubiquitination. […] Cells stably expressing FLAG-β2ARt were transfected with siRNAs targeting nothing (scrambled), ARRDC3, or β-arrestin-2 and then subjected to a treatment with vehicle or ISO. Anti-FLAG immunoprecipitates from the corresponding lysates and whole cell extracts (WCE) were analyzed by immunoblotting with the indicated antibodies. FIG. 10B is a schematic model of ARRDC3 functioning as an adaptor for β2AR ubiquitination.
Co-immunoprecipitations (co-IP). 293T cells were transfected using Fugene 6 (Roche) or Turbofect (Fermentas). 48 h later, cells were lysed, pre-cleared with protein A agarose, and HA- or FLAG-tagged proteins were IP-ed using anti-HA EZview or anti-FLAG EZview beads. Washed beads were resuspended in sample buffer and analyzed by immunoblotting. Where noted, cross-linking was achieved by incubation for 40 min with 2 mM crosslinker dithio-bismaleimidoethane (DTME; Pierce) in PBS containing 10 mM Hepes (pH 7.5), as previously described (Shenoy et al, 2008) with minor modifications. IP complexes were washed three times consecutively in lysis, high salt, and low salt buffers then resuspended in sample buffer before immunoblotting.

Series [13] concerns the target T4, NEDD4 E3 ubiquitin ligase (UniProt P46934-4 1-900, limits assumed).
T4 construct: also called ubiquitin ligase NEDD4
T4 sequence (looked up): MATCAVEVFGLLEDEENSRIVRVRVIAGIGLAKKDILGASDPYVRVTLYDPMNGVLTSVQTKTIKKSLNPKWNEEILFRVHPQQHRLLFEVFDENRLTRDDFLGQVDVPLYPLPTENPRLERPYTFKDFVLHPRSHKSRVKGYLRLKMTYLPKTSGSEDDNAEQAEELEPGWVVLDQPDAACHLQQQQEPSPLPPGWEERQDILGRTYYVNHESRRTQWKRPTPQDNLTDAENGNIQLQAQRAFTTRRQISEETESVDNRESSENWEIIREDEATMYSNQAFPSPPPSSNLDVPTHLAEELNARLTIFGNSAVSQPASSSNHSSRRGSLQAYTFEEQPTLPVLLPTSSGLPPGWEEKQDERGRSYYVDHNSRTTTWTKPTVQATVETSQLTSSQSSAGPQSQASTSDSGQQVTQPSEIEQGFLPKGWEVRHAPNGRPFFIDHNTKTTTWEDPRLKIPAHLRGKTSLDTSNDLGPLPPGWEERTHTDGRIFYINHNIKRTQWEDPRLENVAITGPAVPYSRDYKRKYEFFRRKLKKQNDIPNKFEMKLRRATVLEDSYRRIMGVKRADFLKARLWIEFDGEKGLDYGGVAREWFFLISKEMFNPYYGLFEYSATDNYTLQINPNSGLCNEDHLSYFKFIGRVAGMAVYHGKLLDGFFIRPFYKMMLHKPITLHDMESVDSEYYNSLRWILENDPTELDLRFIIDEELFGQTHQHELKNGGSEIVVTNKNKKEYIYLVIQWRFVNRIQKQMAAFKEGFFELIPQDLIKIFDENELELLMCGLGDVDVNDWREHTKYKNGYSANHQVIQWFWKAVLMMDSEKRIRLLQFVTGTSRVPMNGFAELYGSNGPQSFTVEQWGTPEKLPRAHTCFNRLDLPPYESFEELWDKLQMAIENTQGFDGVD
The series can be described thus: co-immunoprecipitation and immunoblot (FIG. 8B).

Consider `O=C(O)c1ccc2c3c1cccc3c(=O)n1c3ccccc3nc21` [STO-609], for which the β2AR protein level entry in series [1] is “increased exogenously expressed β2AR protein”; in series [2] (at as low as 2 μM, three days), “an increase in β2AR”.
For the molecule “AA496068 EST siRNAs: siRNA having the sequence UAAUAUUUAAUGAGGCGGCCU (SEQ ID NO: 27) (listed as RNA, chemistry not given here)”, the “latrophilin 2 expression” value in [3] was “increases the expression of latrophilin 2”.
Regarding “AAEST siRNA: 5′ UAAUAUUUAAUGAGGCGGCCUdTdT (SEQ ID NO: 34) and/or 5′ AGGCCGCCUCAUUAAAUAUUAdTdT (SEQ ID NO: 35) (chain 1 UAAUAUUUAAUGAGGCGGCCUTT; chain 2 AGGCCGCCUCAUUAAAUAUUATT; sugars from the 5' end r21 d2, backbone not given here)”, the “mRNA expression level of β2-adrenergic receptor” value in series [4] is recorded as “did not decrease the mRNA expression level”. For the same molecule, the “presence of β2-AR on the cell surface” value in series [5] is “decreases the presence of β2-AR on the surface”. Besides, the “baseline β2AR expression” value in series [6] was “an increase in baseline β2AR expression”. In series [2] (western blot, FIG. 16B), the “total β2-AR protein expression” value is “decreased total β2-AR protein expression”.
With “ARRDC3 siRNA: siRNA having the sequence GAACUGCUCUUCCCGAAUG (SEQ ID NO: 25) (chemistry not given here)”, the “level of un-degraded receptor after ISO vs scrambled control siRNA” value in series [7] (ISO-induced degradation of β2ARt) was “about 6 fold”. For the same molecule, in [7] (prior to ISO stimulation), the “increase in basal level of the receptor” value is listed as under 2 fold. Moreover, the “ISO-induced degradation of wild-type β2AR” value in series [8] is recorded as “blocked”. Also, the “reduction in normalized amount of ubiquitinated β2AR compared to ISO-treated control” value in series [9] is reported as −70%. In addition, the “reduction in ubiquitinated β2AR compared to ISO-treated control” value in series [10] was −30%. Moreover, in [11], the “knockdown of ARRDC3 protein expression” value was over 75%. Also, in series [12], the “association of NEDD4 with β2AR” value is “completely abrogated”.

B1: ARRDC3ΔΔPPXY (double PPXY motif mutant of ARRDC3) (other, human, UniProt Q96B67 1-414, looked up)
chain: MVLGKVKSLTISFDCLNDSNVPVYSSGDTVSGRVNLEVTGEIRVKSLKIHARGHAKVRWTESRNAGSNTAYTQNYTEEVEYFNHKDILIGHERDDDNSEEGFHTIHSGRHEYAFSFELPQTPLATSFEGRHGSVRYWVKAELHRPWLLPVKLKKEFTVFEHIDINTPSLLSPQAGTKEKTLCCWFCTSGPISLSAKIERKGYTPGESIQIFAEIENCSSRMVVPKAAIYQTQAFYAKGKMKEVKQLVANLRGESLSSGKTETWNGKLLKIPPVSPSILDCSIIRVEYSLMVYVDIPGAMDLFLNLPLVIGTIPLHPFGSRTSSVSSQCSMNMNWLSLSLPERPEAAASAAEVVTEEQRRNNLAPVSACDDFERALQGPLFAYIQEFRFLPAALASEIDPNPDQSADDRPSCPSR
notes: also called double PPXY ARRDC3 mutant; double PPXY mutant
Consider B1, for which, in series [13], the binding result was “no binding”.
